Assay results as given in the kinase profiling compilation of Christmann-Franck et al. (2016).

Experiments:
Test in all cases: KINOMEscan competition binding
Settings in all cases: compound 10.0 µM
ERN1 (human) = ERN1 (human) (UniProt O75460)
PRKG2 (human) = PRKG2 (human) (UniProt Q13237)
CDC42BPG (human) = CDC42BPG (human) (UniProt Q6DT37)
HIPK1 (human) = HIPK1 (human) (UniProt Q86Z02)
TLK1 (human) = TLK1 (human) (UniProt Q9UKI8)
STK17B (human) = STK17B (human) (UniProt O94768)
CaMK1 (human) = CaMK1 (human) (UniProt Q14012)
MAPK15 (human) = MAPK15 (human) (UniProt Q8TD08)
PAK1 (human) = PAK1 (human) (UniProt Q13153)
IRAK1 (human) = IRAK1 (human) (UniProt P51617)
PRPF4B (human) = PRPF4B (human) (UniProt Q13523)
ANKK1 (human) = ANKK1 (human) (UniProt Q8NFD2)
TNIK (human) = TNIK (human) (UniProt Q9UKE5)
NEK7 (human) = NEK7 (human) (UniProt Q8TDX7)
PLK3 (human) = PLK3 (human) (UniProt Q9H4B4)
RPS6KA4 KD1 (human) = RPS6KA4 KD1 (human) (UniProt O75676)
[1] = system: FLT3 (human), P36888 [D835Y]
MST1R (human) = MST1R (human) (UniProt Q04912)
CDK18 (human) = CDK18 (human) (UniProt Q07002)
PHKG2 (human) = PHKG2 (human) (UniProt P15735)
[2] = system: BMX (human), P51813 [V600E]
MATK (human) = MATK (human) (UniProt P42679)
NTRK3 (human) = NTRK3 (human) (UniProt Q16288)
BLK (human) = BLK (human) (UniProt P51451)
SGK110 (human) = SGK110 (human) (UniProt P0C264)
[3] = target: TYK2 JH1 catalytic (human) (UniProt P29597)
MAP4K5 (human) = MAP4K5 (human) (UniProt Q9Y4K4)
MAPK8 (human) = MAPK8 (human) (UniProt P45983)
MAP2K2 (human) = MAP2K2 (human) (UniProt P36507)
TSSK1B (human) = TSSK1B (human) (UniProt Q9BXA7)
[4] = system: EGFR (human), P00533 [G719C]
BRSK1 (human) = BRSK1 (human) (UniProt Q8TDC3)
RIOK3 (human) = RIOK3 (human) (UniProt O14730)
FLT1 (human) = FLT1 (human) (UniProt P17948)
CSK (human) = CSK (human) (UniProt P41240)
ADCK3 (human) = ADCK3 (human) (UniProt Q8NI60)
RPS6KA1 KD2 (human) = RPS6KA1 KD2 (human) (UniProt Q15418)
CDK4 CCND3 (human) = CDK4 CCND3 (human) (UniProt P11802+P30281)
SNRK (human) = SNRK (human) (UniProt Q9NRH2)
NEK3 (human) = NEK3 (human) (UniProt P51956)

MAP2K2 (human), sequence (P36507 whole entry, looked up): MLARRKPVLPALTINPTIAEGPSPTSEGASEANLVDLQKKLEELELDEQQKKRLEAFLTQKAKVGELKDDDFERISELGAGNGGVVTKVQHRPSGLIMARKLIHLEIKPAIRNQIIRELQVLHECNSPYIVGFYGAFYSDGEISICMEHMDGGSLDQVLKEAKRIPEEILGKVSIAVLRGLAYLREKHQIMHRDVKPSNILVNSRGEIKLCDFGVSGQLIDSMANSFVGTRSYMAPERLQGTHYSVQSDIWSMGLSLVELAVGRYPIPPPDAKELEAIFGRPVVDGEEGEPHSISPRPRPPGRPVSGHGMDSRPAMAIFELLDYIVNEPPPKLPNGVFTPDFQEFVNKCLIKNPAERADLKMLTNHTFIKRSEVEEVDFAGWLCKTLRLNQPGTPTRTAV
CDC42BPG (human), sequence (Q6DT37 whole entry, looked up): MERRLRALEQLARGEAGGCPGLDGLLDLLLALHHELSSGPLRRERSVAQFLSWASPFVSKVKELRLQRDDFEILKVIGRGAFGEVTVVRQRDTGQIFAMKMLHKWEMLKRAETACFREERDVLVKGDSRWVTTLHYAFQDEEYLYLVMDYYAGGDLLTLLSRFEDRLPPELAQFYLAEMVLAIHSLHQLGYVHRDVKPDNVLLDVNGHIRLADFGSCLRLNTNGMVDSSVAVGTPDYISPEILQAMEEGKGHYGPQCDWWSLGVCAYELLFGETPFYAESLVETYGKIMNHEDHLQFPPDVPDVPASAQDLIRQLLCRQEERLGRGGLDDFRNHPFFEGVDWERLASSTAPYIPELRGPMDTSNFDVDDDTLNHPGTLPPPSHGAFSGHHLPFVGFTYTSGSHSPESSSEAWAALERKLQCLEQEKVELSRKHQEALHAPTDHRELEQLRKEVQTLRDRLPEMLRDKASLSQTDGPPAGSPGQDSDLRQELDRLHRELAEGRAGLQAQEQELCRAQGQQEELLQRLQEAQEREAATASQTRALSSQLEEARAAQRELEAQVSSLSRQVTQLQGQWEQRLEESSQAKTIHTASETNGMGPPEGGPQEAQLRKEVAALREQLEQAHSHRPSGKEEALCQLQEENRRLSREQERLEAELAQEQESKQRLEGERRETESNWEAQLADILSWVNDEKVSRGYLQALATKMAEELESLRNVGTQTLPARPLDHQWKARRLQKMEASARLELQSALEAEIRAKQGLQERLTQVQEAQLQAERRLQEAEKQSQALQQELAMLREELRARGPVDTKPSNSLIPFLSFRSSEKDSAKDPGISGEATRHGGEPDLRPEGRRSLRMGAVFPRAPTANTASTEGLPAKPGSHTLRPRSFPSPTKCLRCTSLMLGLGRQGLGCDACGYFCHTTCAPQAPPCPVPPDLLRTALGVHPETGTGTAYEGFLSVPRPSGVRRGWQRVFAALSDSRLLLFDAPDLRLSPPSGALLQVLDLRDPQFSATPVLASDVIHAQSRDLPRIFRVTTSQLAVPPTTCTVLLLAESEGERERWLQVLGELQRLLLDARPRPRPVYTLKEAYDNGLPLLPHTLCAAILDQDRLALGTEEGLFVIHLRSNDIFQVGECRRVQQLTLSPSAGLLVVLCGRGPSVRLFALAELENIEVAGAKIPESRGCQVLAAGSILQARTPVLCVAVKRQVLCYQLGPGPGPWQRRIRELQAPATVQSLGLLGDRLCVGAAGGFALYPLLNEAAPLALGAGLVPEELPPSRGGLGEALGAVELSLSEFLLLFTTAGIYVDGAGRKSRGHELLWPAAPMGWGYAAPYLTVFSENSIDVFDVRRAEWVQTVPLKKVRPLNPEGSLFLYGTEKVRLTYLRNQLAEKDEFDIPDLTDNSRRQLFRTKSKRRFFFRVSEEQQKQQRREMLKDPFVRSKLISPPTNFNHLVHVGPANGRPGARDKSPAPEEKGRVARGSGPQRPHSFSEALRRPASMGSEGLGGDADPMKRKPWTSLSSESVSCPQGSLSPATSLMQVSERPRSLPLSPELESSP
RIOK3 (human), sequence (O14730 whole entry, looked up): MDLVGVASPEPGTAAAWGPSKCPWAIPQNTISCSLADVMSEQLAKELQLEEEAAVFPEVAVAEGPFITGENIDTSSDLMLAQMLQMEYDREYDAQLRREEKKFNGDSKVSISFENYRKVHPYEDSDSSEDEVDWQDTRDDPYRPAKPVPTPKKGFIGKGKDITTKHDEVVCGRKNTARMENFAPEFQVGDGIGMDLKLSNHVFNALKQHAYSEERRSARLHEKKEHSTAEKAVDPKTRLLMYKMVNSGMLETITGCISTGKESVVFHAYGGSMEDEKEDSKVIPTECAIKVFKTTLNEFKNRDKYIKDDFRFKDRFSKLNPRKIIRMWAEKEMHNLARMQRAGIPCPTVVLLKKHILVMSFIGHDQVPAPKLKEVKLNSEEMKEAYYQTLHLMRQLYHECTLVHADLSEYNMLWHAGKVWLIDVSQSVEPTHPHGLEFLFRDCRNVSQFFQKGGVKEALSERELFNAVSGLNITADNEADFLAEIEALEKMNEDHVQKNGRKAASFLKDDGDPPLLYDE
CSK (human), sequence (P41240 whole entry, looked up): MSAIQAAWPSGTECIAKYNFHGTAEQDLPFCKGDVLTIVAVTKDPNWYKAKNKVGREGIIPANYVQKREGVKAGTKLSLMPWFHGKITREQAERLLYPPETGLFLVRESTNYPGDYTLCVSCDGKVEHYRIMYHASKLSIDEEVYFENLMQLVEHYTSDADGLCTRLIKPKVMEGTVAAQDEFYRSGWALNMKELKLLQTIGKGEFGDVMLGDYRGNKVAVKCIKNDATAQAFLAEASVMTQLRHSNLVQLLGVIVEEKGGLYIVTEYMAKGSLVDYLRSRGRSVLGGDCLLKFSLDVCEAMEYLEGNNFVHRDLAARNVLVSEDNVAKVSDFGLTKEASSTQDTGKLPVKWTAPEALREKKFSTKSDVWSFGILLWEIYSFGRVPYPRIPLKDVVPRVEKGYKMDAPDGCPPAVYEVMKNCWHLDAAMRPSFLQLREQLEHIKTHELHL
FLT1 (human), sequence (P17948 whole entry, looked up): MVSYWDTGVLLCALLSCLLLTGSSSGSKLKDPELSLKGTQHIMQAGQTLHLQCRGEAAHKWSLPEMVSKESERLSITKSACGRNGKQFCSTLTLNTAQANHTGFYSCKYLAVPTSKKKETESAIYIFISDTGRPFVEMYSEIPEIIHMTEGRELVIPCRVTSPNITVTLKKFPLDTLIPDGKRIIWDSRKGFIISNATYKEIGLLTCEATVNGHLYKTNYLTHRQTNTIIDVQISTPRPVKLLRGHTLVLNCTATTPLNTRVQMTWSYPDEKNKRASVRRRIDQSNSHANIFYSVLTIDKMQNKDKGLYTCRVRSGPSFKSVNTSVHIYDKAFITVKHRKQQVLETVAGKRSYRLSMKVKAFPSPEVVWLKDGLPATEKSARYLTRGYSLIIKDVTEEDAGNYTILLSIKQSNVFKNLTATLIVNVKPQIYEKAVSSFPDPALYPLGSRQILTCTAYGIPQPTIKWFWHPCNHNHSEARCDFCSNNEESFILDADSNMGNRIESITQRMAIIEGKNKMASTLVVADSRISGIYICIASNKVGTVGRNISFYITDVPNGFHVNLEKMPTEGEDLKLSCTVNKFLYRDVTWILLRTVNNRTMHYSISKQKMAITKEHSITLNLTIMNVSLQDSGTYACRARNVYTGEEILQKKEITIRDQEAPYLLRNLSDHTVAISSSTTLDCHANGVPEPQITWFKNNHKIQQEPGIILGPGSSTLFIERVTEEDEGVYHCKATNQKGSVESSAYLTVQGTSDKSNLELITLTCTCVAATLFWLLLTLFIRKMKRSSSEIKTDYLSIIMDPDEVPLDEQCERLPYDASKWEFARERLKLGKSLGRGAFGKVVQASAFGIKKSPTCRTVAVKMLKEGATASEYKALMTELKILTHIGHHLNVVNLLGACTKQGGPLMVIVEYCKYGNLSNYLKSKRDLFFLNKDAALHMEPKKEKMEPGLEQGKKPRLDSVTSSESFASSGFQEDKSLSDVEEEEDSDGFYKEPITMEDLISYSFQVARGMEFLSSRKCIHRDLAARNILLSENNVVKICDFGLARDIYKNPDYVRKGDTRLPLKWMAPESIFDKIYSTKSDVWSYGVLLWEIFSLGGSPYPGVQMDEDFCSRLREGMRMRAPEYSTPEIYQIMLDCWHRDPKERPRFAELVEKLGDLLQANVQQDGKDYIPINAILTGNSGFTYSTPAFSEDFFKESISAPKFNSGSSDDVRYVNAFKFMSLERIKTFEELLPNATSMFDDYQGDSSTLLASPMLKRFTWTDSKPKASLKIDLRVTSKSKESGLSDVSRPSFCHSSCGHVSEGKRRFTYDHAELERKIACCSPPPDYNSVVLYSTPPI
RPS6KA4 KD1 (human), sequence (O75676 whole entry, looked up): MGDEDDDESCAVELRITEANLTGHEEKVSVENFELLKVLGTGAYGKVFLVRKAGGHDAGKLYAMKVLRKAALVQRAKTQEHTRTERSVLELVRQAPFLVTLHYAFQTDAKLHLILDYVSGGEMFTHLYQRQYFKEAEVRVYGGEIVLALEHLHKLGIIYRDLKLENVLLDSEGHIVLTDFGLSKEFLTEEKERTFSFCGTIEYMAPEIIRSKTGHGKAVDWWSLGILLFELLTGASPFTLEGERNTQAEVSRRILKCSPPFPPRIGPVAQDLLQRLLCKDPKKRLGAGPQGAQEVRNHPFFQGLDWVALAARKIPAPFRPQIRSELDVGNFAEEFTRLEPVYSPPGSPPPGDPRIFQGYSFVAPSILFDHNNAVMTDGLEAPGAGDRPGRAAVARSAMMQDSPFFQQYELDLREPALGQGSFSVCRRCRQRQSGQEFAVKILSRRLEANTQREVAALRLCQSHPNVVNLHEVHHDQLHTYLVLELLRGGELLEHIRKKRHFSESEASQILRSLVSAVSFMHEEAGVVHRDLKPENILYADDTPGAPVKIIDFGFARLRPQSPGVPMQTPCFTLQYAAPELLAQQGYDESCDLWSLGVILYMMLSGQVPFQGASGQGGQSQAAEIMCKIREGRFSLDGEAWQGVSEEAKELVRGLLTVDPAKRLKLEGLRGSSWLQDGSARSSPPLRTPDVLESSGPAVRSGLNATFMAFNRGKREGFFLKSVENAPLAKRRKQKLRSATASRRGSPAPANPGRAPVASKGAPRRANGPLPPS

Cc1cn(-c2cc(C(=O)Nc3ccc(C)c(NC(=O)c4ccno4)c3)cc(C(F)(F)F)c2)cn1
kinase still bound, per cent of control (ERN1 (human)): 100% | kinase still bound, per cent of control (PRKG2 (human)): 100% | kinase still bound, per cent of control (CDC42BPG (human)): 100% | kinase still bound, per cent of control (HIPK1 (human)): 100% | kinase still bound, per cent of control (TLK1 (human)): 100% | kinase still bound, per cent of control (STK17B (human)): 100% | kinase still bound, per cent of control (CaMK1 (human)): 100% | kinase still bound, per cent of control (MAPK15 (human)): 100% | kinase still bound, per cent of control (PAK1 (human)): 100% | kinase still bound, per cent of control (IRAK1 (human)): 100% | kinase still bound, per cent of control (PRPF4B (human)): 100% | kinase still bound, per cent of control (ANKK1 (human)): 100% | kinase still bound, per cent of control (TNIK (human)): 100% | kinase still bound, per cent of control (NEK7 (human)): 100% | kinase still bound, per cent of control (PLK3 (human)): 100% | kinase still bound, per cent of control (RPS6KA4 KD1 (human)): 100% | kinase still bound, per cent of control [1]: 100% | kinase still bound, per cent of control (MST1R (human)): 100% | kinase still bound, per cent of control (CDK18 (human)): 100% | kinase still bound, per cent of control (PHKG2 (human)): 100% | kinase still bound, per cent of control [2]: 1.3% | kinase still bound, per cent of control (MATK (human)): 100% | kinase still bound, per cent of control (NTRK3 (human)): 100% | kinase still bound, per cent of control (BLK (human)): 15% | kinase still bound, per cent of control (SGK110 (human)): 100% | kinase still bound, per cent of control [3]: 100% | kinase still bound, per cent of control (MAP4K5 (human)): 100% | kinase still bound, per cent of control (MAPK8 (human)): 100% | kinase still bound, per cent of control (MAP2K2 (human)): 100% | kinase still bound, per cent of control (TSSK1B (human)): 100% | kinase still bound, per cent of control [4]: 100% | kinase still bound, per cent of control (BRSK1 (human)): 100% | kinase still bound, per cent of control (RIOK3 (human)): 100% | kinase still bound, per cent of control (FLT1 (human)): 100% | kinase still bound, per cent of control (CSK (human)): 29% | kinase still bound, per cent of control (ADCK3 (human)): 100% | kinase still bound, per cent of control (RPS6KA1 KD2 (human)): 100%

CCOc1cc(N2CCC(O)CC2)ccc1Nc1ncc2c(n1)N(C)c1ccccc1C(=O)N2C
kinase still bound, per cent of control (ERN1 (human)): 100% | kinase still bound, per cent of control (PRKG2 (human)): 100% | kinase still bound, per cent of control (CDC42BPG (human)): 100% | kinase still bound, per cent of control (HIPK1 (human)): 100% | kinase still bound, per cent of control (TLK1 (human)): 100% | kinase still bound, per cent of control (STK17B (human)): 100% | kinase still bound, per cent of control (CaMK1 (human)): 100% | kinase still bound, per cent of control (MAPK15 (human)): 100% | kinase still bound, per cent of control (PAK1 (human)): 100% | kinase still bound, per cent of control (IRAK1 (human)): 100% | kinase still bound, per cent of control (PRPF4B (human)): 100% | kinase still bound, per cent of control (ANKK1 (human)): 100% | kinase still bound, per cent of control (TNIK (human)): 100% | kinase still bound, per cent of control (NEK7 (human)): 100% | kinase still bound, per cent of control (PLK3 (human)): 100% | kinase still bound, per cent of control (RPS6KA4 KD1 (human)): 100% | kinase still bound, per cent of control [1]: 100% | kinase still bound, per cent of control (MST1R (human)): 100% | kinase still bound, per cent of control (CDK18 (human)): 100% | kinase still bound, per cent of control (PHKG2 (human)): 100% | kinase still bound, per cent of control [2]: 100% | kinase still bound, per cent of control (MATK (human)): 100% | kinase still bound, per cent of control (NTRK3 (human)): 100% | kinase still bound, per cent of control (BLK (human)): 100% | kinase still bound, per cent of control (SGK110 (human)): 100% | kinase still bound, per cent of control [3]: 100% | kinase still bound, per cent of control (MAP4K5 (human)): 100% | kinase still bound, per cent of control (MAPK8 (human)): 100% | kinase still bound, per cent of control (MAP2K2 (human)): 100% | kinase still bound, per cent of control (TSSK1B (human)): 100% | kinase still bound, per cent of control [4]: 100% | kinase still bound, per cent of control (BRSK1 (human)): 100% | kinase still bound, per cent of control (RIOK3 (human)): 100% | kinase still bound, per cent of control (FLT1 (human)): 100% | kinase still bound, per cent of control (CSK (human)): 100% | kinase still bound, per cent of control (ADCK3 (human)): 100% | kinase still bound, per cent of control (RPS6KA1 KD2 (human)): 28%

CC(=O)c1c(C)c2cnc(Nc3ccc(N4CCNCC4)cn3)nc2n(C2CCCC2)c1=O
kinase still bound, per cent of control (ERN1 (human)): 34% | kinase still bound, per cent of control (PRKG2 (human)): 65% | kinase still bound, per cent of control (CDK4 CCND3 (human)): 2% | kinase still bound, per cent of control (CDC42BPG (human)): 94% | kinase still bound, per cent of control (HIPK1 (human)): 0.1% | kinase still bound, per cent of control (TLK1 (human)): 42% | kinase still bound, per cent of control (CaMK1 (human)): 35% | kinase still bound, per cent of control (MAPK15 (human)): 9.4% | kinase still bound, per cent of control (SNRK (human)): 94% | kinase still bound, per cent of control (IRAK1 (human)): 0.85% | kinase still bound, per cent of control (PRPF4B (human)): 78% | kinase still bound, per cent of control (ANKK1 (human)): 79% | kinase still bound, per cent of control (TNIK (human)): 23% | kinase still bound, per cent of control (NEK7 (human)): 60% | kinase still bound, per cent of control (PLK3 (human)): 19% | kinase still bound, per cent of control (RPS6KA4 KD1 (human)): 75% | kinase still bound, per cent of control [1]: 1.6% | kinase still bound, per cent of control (CDK18 (human)): 20% | kinase still bound, per cent of control (PHKG2 (human)): 5% | kinase still bound, per cent of control (MATK (human)): 46% | kinase still bound, per cent of control (NTRK3 (human)): 23% | kinase still bound, per cent of control (NEK3 (human)): 100% | kinase still bound, per cent of control [3]: 18% | kinase still bound, per cent of control (MAPK8 (human)): 1.6% | kinase still bound, per cent of control (MAP2K2 (human)): 9.1% | kinase still bound, per cent of control (TSSK1B (human)): 8% | kinase still bound, per cent of control (BRSK1 (human)): 68% | kinase still bound, per cent of control (RIOK3 (human)): 64% | kinase still bound, per cent of control (FLT1 (human)): 100% | kinase still bound, per cent of control (CSK (human)): 90% | kinase still bound, per cent of control (ADCK3 (human)): 63% | kinase still bound, per cent of control (RPS6KA1 KD2 (human)): 38%
